System: adjuvant-induced arthritis
Assay: Inhibition of adjuvant-induced arthritis (hind paw swelling)
Format: in vivo, Male SD rats
Settings: 5 consecutive days from day 17 after adjuvant
Source text: Inhibition of adjuvant-induced arthritis
Male SD rats were used as test subjects. Heat-kllled Mycobacterium butyricum suspended in liquid paraffin in a concentration of 0.5% was subcutaneously injected into the right hind paw of each rat. After 17 days, animals showing the clear onset of secondary inflammation also in the left hind paw were selected, and each compound of the present invention suspended in a 0.5% methyl cellulose solution was orally administered to the animals for 5 consecutive days. The volume of each hind paw at the completion of the administration was compared with that at the beginning of the administration, and the swelling-inhibitory effect was evaluated by the difference between them.

[1] = oral dose 50 mg/kg, volume at completion vs beginning of administration

| Compound | Increase of edema volume (ml) Injected paw [1] [mL] | Increase of edema volume (ml) Non-injected paw [1] [mL] | Increase of edema volume (ml) Injected paw (oral dose 25 mg/kg) [mL] | Increase of edema volume (ml) Non-injected paw (oral dose 25 mg/kg) [mL] |
| --- | --- | --- | --- | --- |
| CNC(=Nc1cc(C(C)c2cccc(C(=O)c3ccccc3)c2)ns1)N1CCOCC1.Cl (stereo not shown) [Experiment 1, N'-{3-[1-(3-Benzoylphenyl)ethyl]-5-isothiazolyl}-N-methyl-4-morpholine carboximidamide hydrochloride] | 0.12 | 0.02 | – | – |
| CC(c1ccc(-c2ccccc2)c(F)c1)c1cc(N=C(N)N2CCOCC2)n(C)n1.Cl.Cl (stereo not shown) [Experiment 49, N'-{3-[1-(2-Fluoro[1,1'-biphenyl]-4-yl)ethyl]-1-methyl-1H-pyrazol-5-yl}-4-morpholinecarboximidamide dihydrochloride] | -0.24 | -0.17 | – | – |
| CC(c1cccc(C(=O)c2ccccc2)c1)c1nc(N=C(N(C)C)N2CCOCC2)ns1.Cl (stereo not shown) [Experiment 73, N'-{5-[1-(3-Benzoylphenyl)ethyl]-1,2,4-thiadiazol-3-yl}-N,N-dimethyl-4-morpholinecarboximidamide hydrochloride] | -0.95 | -0.78 | – | – |
| CCNC(=Nc1nc(C(C)c2cccc(C(=O)c3ccccc3)c2)n[nH]1)N1CCOCC1.Cl (stereo not shown) [Experiment 75, N'-{3-[1-(3-Benzoylphenyl)ethyl]-1H-1,2,4-triazol-5-yl}-N-ethyl-4-morpholinecarboximidamide hydrochloride] | -1.08 | -0.53 | – | – |
| CC(c1cccc(C(=O)c2ccccc2)c1)c1n[nH]c(N)n1.Cl (stereo not shown) [Experiment 320, {3-[1-(5-Amino-1H-1,2,4-triazol-3-yl)ethyl]phenyl}(phenyl)methanone hydrochloride] | – | – | -1.20 | -0.53 |
